From patent publication US20170320848A1, “COMPOUNDS FOR USE IN ANTHELMINTHIC TREATMENT” (Bayer Animal Health GMBH, priority 2014, published 2017)
Where two headings read alike, the source gives them in different places.

Tests used:
[1] = Measurement of LogP values by HPLC on reversed phase columns (EEC directive 79/831 Annex V.A8); type: physicochemical; conditions: acidic range, 0.1% formic acid in water and acetonitrile as eluent; for chromatographic logP: read-out: logP (HCOOH)[a]
[2] = tested on: Cooperia curticei; assay: Cooperia curticei assay (COOPCU), larval mortality; type: cell-based; conditions: Cooperia curticei, 120 h, after 5 days, read-out: activity (percentage of larval mortality); for mortality at 20 ppm: application rate 20 ppm
Experimental: Cooperia Curticei—Assay (COOPCU)
(§1) Solvent: dimethyl sulfoxide
(§2) To produce a suitable preparation, 10 mg of active compound are dissolved in 0.5 ml solvent, and the concentrate is diluted with “Ringer's solution” to the desired concentration.
Approximately 40 nematode larvae (Cooperia curticei) are transferred into a test tube containing the compound solution.
After 5 days percentage of larval mortality is recorded. 100% efficacy means all larvae are killed; 0% efficacy means no larvae are killed.

[3] = tested on: Haemonchus contortus; assay: Haemonchus contortus assay (HAEMCO), larval mortality; type: cell-based; conditions: after 5 days
Experimental: Haemonchus Contortus—Assay (HAEMCO)
as §1, §2
Approximately 40 larvae of the red stomach worm (Haemonchus contortus) are transferred into a test tube containing compound solution.
After 5 days percentage of larval mortality are recorded. 100% efficacy means all larvae are killed, 0% efficacy means no larvae are killed.

[4] = tested on: Nippostrongylus brasiliensis; assay: Nippostrongylus brasiliensis assay (NIPOBR), acetylcholine esterase readout; type: cell-based; conditions: read-out: activity (reduction of AChE compared to negative control)
Experimental: Nippostrongylus Brasiliensis—Assay (NIPOBR)
Adult Nippostrongylus brasiliensis were washed with saline buffer containing 100 U/ml penicillin, 0.1 mg/ml streptomycin and 2.5 μg/ml amphotericin B. Test compounds were dissolved in DMSO and worms were incubated in medium in a final concentration of 10 μg/ml (10 ppm) respectively 1 μg/ml (1 ppm). An aliquot of the medium was used to determine the acetylcholine esterase activity in comparison to a negative control. The principle of measuring acetylcholine esterase as readout for anthelmintic activity was described in Rapson et al (1986) and Rapson et al (1987).

[5] = tested on: Meloidogyne incognita; assay: Meloidogyne incognita assay (MELGIN), gall formation on salad seedlings; type: in vivo; conditions: application rate 20 ppm, after 14 days
Experimental: Meloidogyne Incognita—Assay (MELGIN)
Solvent: 125.0 parts by weight of acetone
To produce a suitable preparation, 1 part by weight of active compound is mixed with the stated amount of solvent, and the concentrate is diluted with water to the desired concentration.
Vessels are filled with sand, a solution of the active ingredient, a suspension containing eggs and larvae of the southern root-knot nematode (Meloidogyne incognita) and salad seeds. The salad seeds germinate and the seedlings grow. Galls develop in the roots.
After 14 days the nematicidal activity is determined on the basis of the percentage of gall formation. 100% means no galls were found and 0% means the number of galls found on the roots of the treated plants was equal to that in untreated control plants.

[6] = Haemonchus contortus, 120 h, application rate 20 ppm, read-out: activity (percentage of larval mortality)

Compound: O=C(NCC(F)(F)c1ccc(-c2ccc(Cl)cc2)cc1Cl)c1ccccc1C(F)(F)F [Example 1]
- chromatographic logP [1]: 4.58
- mortality at 20 ppm [2]: 100%
- mortality at 20 ppm [3, 6]: 100%
- inhibition at 10 µg/mL ([4]; 10 μg/ml, adult worms): ≥ 75%

Compound: O=C(NCC(F)(F)c1ccc(-c2ccc(F)c(C(F)(F)F)c2)cc1Cl)c1ccccc1C(F)(F)F [Example 21]
- chromatographic logP [1]: 4.55
- mortality at 20 ppm [2]: 100%
- mortality at 20 ppm [3, 6]: 90%
- inhibition at 10 µg/mL [4]: ≥ 75%

Compound: O=C(NCC(F)(F)c1ccc(-c2ccc(F)cc2)cc1F)c1cccnc1C(F)(F)F [Example 19]
- mortality at 20 ppm [2]: 100%
- mortality at 20 ppm [3, 6]: 100%

Compound: O=C(NCC(F)(F)c1ccc(-c2ccc(OC(F)(F)F)cc2)cc1C(F)(F)F)c1ccccc1C(F)(F)F [Example 15]
- mortality at 20 ppm [2]: 100%
- mortality at 20 ppm [3, 6]: 90%

Compound: O=C(NCC(F)(F)c1ccc(-c2ccccc2)cc1Cl)c1ccccc1C(F)(F)F [Example 2]
- chromatographic logP [1]: 4.05
- mortality at 20 ppm [2]: 100%
- mortality at 20 ppm [3, 6]: 100%
- inhibition at 10 µg/mL ([4]; 10 μg/ml, adult worms): ≥ 75%

Compound: COc1cc(-c2ccc(C(F)(F)CNC(=O)c3ccccc3C(F)(F)F)c(Cl)c2)ccc1F [Example 34]
- chromatographic logP ([1]; reversed phase HPLC columns): 4.09
- mortality at 20 ppm [2]: 100%
- mortality at 20 ppm [3, 6]: 100%

Compound: O=C(NCC(F)(F)c1ccc(-c2ccc(F)cc2)cc1Cl)c1cccnc1C(F)(F)F [Example 9]
- chromatographic logP ([1]; reversed phase HPLC columns): 3.68
- mortality at 20 ppm [2]: 100%
- mortality at 20 ppm [3, 6]: 100%
- nematicidal activity (percentage of gall formation) [5]: 100%

Compound: O=C(NCC(F)(F)c1ccc(-c2ccc(F)cc2)cc1F)c1ccccc1C(F)(F)F [Example 7, N-(2-(3,4′-Difluoro-[1,1′-biphenyl]-4-yl)-2,2-difluoroethyl)-2-(trifluoromethyl)benzamide]
- mortality at 20 ppm [2]: 100%
- mortality at 20 ppm [3, 6]: 90%
- inhibition at 10 µg/mL ([4]; 10 μg/ml, adult worms): ≥ 75%

Compound: CSc1ccc(-c2ccc(C(F)(F)CNC(=O)c3ccccc3C(F)(F)F)c(Cl)c2)cc1 [Example 26]
- chromatographic logP ([1]; reversed phase HPLC columns): 4.43
- mortality at 20 ppm [2]: 100%
- mortality at 20 ppm [3, 6]: 100%

Compound: O=C(NCC(F)(F)c1ccc(-c2ccc(F)cc2)cc1C(F)(F)F)c1ccccc1C(F)(F)F [Example 12, N-(2,2-Difluoro-2-(4′-fluoro-3-(trifluoromethyl)-[1,1′-biphenyl]-4-yl)ethyl)-2-(trifluoromethyl)benzamide]
- mortality at 20 ppm [2]: 100%
- mortality at 20 ppm [3, 6]: 100%
- inhibition at 10 µg/mL ([4]; 10 μg/ml, adult worms): ≥ 75%

Compound: O=C(NCC(F)(F)c1ccc(-c2ccc(Cl)cc2)cc1F)c1ccccc1C(F)(F)F [Example 5]
- mortality at 20 ppm [2]: 100%
- mortality at 20 ppm [3, 6]: 80%
- inhibition at 10 µg/mL [4]: ≥ 75%

Compound: O=C(NCC(F)(F)c1ccc(-c2c(F)cccc2F)cc1Cl)c1ccccc1C(F)(F)F [Example 31]
- chromatographic logP ([1]; reversed phase HPLC columns): 3.99
- mortality at 20 ppm [2]: 100%
- mortality at 20 ppm [3, 6]: 80%

Compound: O=C(NCC(F)(F)c1ccc(-c2ccc(Cl)cc2)cc1Cl)c1cccnc1C(F)(F)F [Example 4]
- chromatographic logP ([1]; reversed phase HPLC columns): 4.14
- mortality at 4 ppm ([2]; application rate 4 ppm): 100%
- mortality at 4 ppm ([3]; Haemonchus contortus, 120 h, application rate 4 ppm, read-out: activity (percentage of larval mortality)): 90%

Compound: O=C(NCC(F)(F)c1ccc(-c2ccc(F)cc2)cc1Cl)c1ccccc1C(F)(F)F [Example 3, N-[2-[2-chloro-4-(4-fluorophenyl)phenyl]-2,2-difluoro-ethyl]-2-(trifluoromethyl)benzamide]
- logP (HCOOH)[a] [1]: 4.10
- chromatographic logP [1]: 4.14
- mortality at 20 ppm [2]: 100%
- mortality at 20 ppm [3, 6]: 100%
- inhibition at 10 µg/mL ([4]; 10 μg/ml, adult worms): ≥ 75%

Compound: O=C(NCC(F)(F)c1ccc(-c2cccc(OC(F)F)c2)cc1Cl)c1ccccc1C(F)(F)F [Example 65]
- logP (HCOOH)[a] [1]: 4.08
- nematicidal activity (percentage of gall formation) [5]: 100%

Compound: O=C(NCC(F)(F)c1ccc(-c2ccc(C(F)(F)F)c(F)c2)cc1Cl)c1ccccc1C(F)(F)F [Example 22]
- chromatographic logP [1]: 4.62
- mortality at 20 ppm [2]: 100%
- mortality at 20 ppm [3, 6]: 90%
- inhibition at 10 µg/mL [4]: ≥ 75%

Compound: Cc1cc(-c2ccc(Cl)c(Cl)c2)ccc1C(F)(F)CNC(=O)c1ccccc1C(F)(F)F [Example 122]
- logP (HCOOH)[a] [1]: 4.98
- nematicidal activity (percentage of gall formation) [5]: 100%

Compound: Cc1cc(-c2cccc(F)c2F)ccc1C(F)(F)CNC(=O)c1ccccc1C(F)(F)F [Example 127]
- logP (HCOOH)[a] [1]: 4.1
- nematicidal activity (percentage of gall formation) [5]: 90%

Compound: Cc1cc(-c2ccc(F)c(F)c2)ccc1C(F)(F)CNC(=O)c1ccccc1C(F)(F)F [Example 120]
- logP (HCOOH)[a] [1]: 4.2
- nematicidal activity (percentage of gall formation) [5]: 100%

Compound: O=C(NCC(F)(F)c1ccc(-c2ccc(Cl)c(Cl)c2)cc1Cl)c1ccccc1C(F)(F)F [Example 70]
- logP (HCOOH)[a] [1]: 4.93
- nematicidal activity (percentage of gall formation) [5]: 90%

Compound: COc1cc(-c2ccc(F)cc2)ccc1C(F)(F)CNC(=O)c1ccccc1C(F)(F)F [Example 37]
- chromatographic logP [1]: 3.89
- mortality at 20 ppm [2]: 100%
- mortality at 20 ppm [3, 6]: 90%
- inhibition at 10 µg/mL [4]: ≥ 75%

Compound: O=C(NCC(F)(F)c1ccc(-c2ccc(Cl)cc2)cc1C(F)(F)F)c1ccccc1C(F)(F)F [Example 13]
- mortality at 20 ppm [2]: 100%
- mortality at 20 ppm [3, 6]: 90%
- inhibition at 10 µg/mL ([4]; 10 μg/ml, adult worms): ≥ 75%

Compound: N#Cc1ccc(-c2ccc(C(F)(F)CNC(=O)c3ccccc3C(F)(F)F)c(Cl)c2)cc1Cl [Example 105]
- logP (HCOOH)[a] [1]: 4.02
- nematicidal activity (percentage of gall formation) [5]: 100%

Compound: O=C(NCC(F)(F)c1ccc(-c2cccc(Cl)c2)cc1Cl)c1ccccc1C(F)(F)F [Example 69]
- logP (HCOOH)[a] [1]: 4.6
- nematicidal activity (percentage of gall formation) [5]: 100%

Compound: O=C(NCC(F)(F)c1c(F)cc(-c2ccc(SC(F)(F)F)cc2)cc1F)c1ccccc1C(F)(F)F [Example 47]
- logP (HCOOH)[a] [1]: 4.82
- nematicidal activity (percentage of gall formation) [5]: 90%

Compound: O=C(NCC(F)(F)c1ccc(-c2ccc(F)c(Cl)c2)cc1Cl)c1ccccc1C(F)(F)F [Example 94]
- logP (HCOOH)[a] [1]: 4.57
- nematicidal activity (percentage of gall formation) [5]: 100%

Compound: O=C(NCC(F)(F)c1ccc(-c2ccc(F)cc2)cc1Cl)c1cccnc1Cl [Example 63]
- logP (HCOOH)[a] [1]: 3.46
- nematicidal activity (percentage of gall formation) [5]: 100%

Compound: O=C(NCC(F)(F)c1ccc(-c2cc(F)c(F)c(F)c2)cc1Cl)c1c(F)cccc1F [Example 117]
- logP (HCOOH)[a] [1]: 4.05
- nematicidal activity (percentage of gall formation) [5]: 100%

Compound: O=C(NCC(F)(F)c1ccc(-c2ccc(Cl)cc2)cc1F)c1cccnc1C(F)(F)F [Example 20]
- mortality at 20 ppm [2]: 100%
- mortality at 20 ppm [3, 6]: 90%

Compound: O=C(NCC(F)(F)c1c(F)cc(-c2ccc(F)cc2)cc1F)c1ccccc1C(F)(F)F [Example 16]
- chromatographic logP ([1]; reversed phase HPLC columns): 3.95
- mortality at 20 ppm [2]: 100%
- mortality at 20 ppm [3, 6]: 100%

Compound: Cc1cc(-c2cc(F)c(Cl)c(F)c2)ccc1C(F)(F)CNC(=O)c1ccccc1C(F)(F)F [Example 126]
- logP (HCOOH)[a] [1]: 4.77
- nematicidal activity (percentage of gall formation) [5]: 90%

Compound: O=C(NCC(F)(F)c1ccc(-c2ccc(OC(F)(F)F)cc2)cc1F)c1ccccc1C(F)(F)F [Example 14]
- mortality at 20 ppm [2]: 100%
- mortality at 20 ppm [3, 6]: 90%

Compound: Cc1cc(-c2ccc(SC(F)(F)F)cc2)ccc1C(F)(F)CNC(=O)c1ccccc1C(F)(F)F [Example 50]
- logP (HCOOH)[a] [1]: 5.08
- nematicidal activity (percentage of gall formation) [5]: 100%

Compound: Cc1cc(-c2ccc(Cl)c(F)c2)ccc1C(F)(F)CNC(=O)c1ccccc1C(F)(F)F [Example 125]
- logP (HCOOH)[a] [1]: 4.61
- nematicidal activity (percentage of gall formation) [5]: 100%

Compound: O=C(NCC(F)(F)c1ccc(-c2ccc(Cl)cc2)cc1C(F)(F)F)c1cccnc1C(F)(F)F [Example 18]
- mortality at 20 ppm [2]: 100%
- mortality at 20 ppm [3, 6]: 100%

Compound: N#Cc1ccc(-c2ccc(C(F)(F)CNC(=O)c3ccccc3C(F)(F)F)c(Cl)c2)cc1C(F)(F)F [Example 97]
- logP (HCOOH)[a] [1]: 4.12
- activity (percentage of larval mortality) ([3]; application rate 20 ppm): 80%

Compound: O=C(NCC(F)(F)c1ccc(-c2ccc(SC(F)(F)F)cc2)cc1Cl)c1ccccc1C(F)(F)F [Example 23]
- chromatographic logP [1]: 4.98
- mortality at 20 ppm [2]: 100%
- mortality at 20 ppm [3, 6]: 100%
- inhibition at 10 µg/mL [4]: ≥ 75%

Compound: O=C(NCC(F)(F)c1c(F)cc(-c2cc(F)c(F)c(F)c2)cc1F)c1ccccc1C(F)(F)F [Example 108]
- logP (HCOOH)[a] [1]: 4.2
- nematicidal activity (percentage of gall formation) [5]: 90%

Compound: O=C(NCC(F)(F)c1ccc(-c2ccc(F)cc2F)cc1Cl)c1ccccc1C(F)(F)F [Example 36]
- chromatographic logP [1]: 4.22
- mortality at 20 ppm [2]: 100%
- mortality at 20 ppm [3, 6]: 100%
- inhibition at 10 µg/mL [4]: ≥ 75%
